Among the data in patent US8637511B2, “Aminopyrimidines useful as kinase inhibitors” (Vertex Pharmaceuticals Incorporated, priority 2005, dated 2014) are Ki values, retold here.

This experiment concerns the target T1, human Itk kinase (Homo sapiens, UniProt Q08881).
T1 sequence (Q08881 1-620): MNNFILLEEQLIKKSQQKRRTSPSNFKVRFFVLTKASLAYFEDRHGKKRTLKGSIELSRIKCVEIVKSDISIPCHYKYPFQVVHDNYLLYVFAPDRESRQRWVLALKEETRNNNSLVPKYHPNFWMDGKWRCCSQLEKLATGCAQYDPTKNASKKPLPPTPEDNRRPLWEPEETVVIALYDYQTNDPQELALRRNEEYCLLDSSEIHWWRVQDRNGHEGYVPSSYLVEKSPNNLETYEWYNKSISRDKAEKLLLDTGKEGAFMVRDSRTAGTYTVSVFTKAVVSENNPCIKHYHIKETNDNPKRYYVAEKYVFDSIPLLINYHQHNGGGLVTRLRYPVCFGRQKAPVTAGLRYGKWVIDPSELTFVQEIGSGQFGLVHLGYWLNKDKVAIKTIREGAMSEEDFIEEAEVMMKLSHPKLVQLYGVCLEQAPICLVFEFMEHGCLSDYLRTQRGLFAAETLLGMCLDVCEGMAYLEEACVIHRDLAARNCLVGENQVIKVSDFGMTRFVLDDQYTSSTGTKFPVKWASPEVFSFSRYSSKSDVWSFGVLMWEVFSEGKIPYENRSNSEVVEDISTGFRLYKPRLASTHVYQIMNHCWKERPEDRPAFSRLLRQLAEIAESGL
As to the kind of experiment: Itk inhibition assay: radioactivity-based assay. The following applies: Ki(app). The format is biochemical. Summed up:
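50 nM Itk with 3 μM SAM68 Δ332-443 peptide and 7.5 μM [γ-33P]ATP in MOPS pH 7.0, MgCl2, 25° C; compound (top 50 μM final, 2-fold dilutions, 2% DMSO) preincubated 10 min, reaction 10 min. Phosphocellulose filter capture and scintillation counting; Ki(app) by non-linear regression of initial rates.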
As to `CCC(=O)Nc1ccc(Sc2nc(Nc3cc(C)n[nH]3)cc(N3CC(OC(C)(C)C)C3)n2)cc1` [Compound 67], the Ki lay in the range of 100 to 1000 nM.

On to `Cc1cc(Nc2cc(N3CC(C)(O)C3)nc(Sc3ccc(NC(=O)c4ccccc4Cl)cc3)n2)[nH]n1` [Compound 50], for which the Ki is no more than 100 nM.

`COC1(C)CN(c2cc(Nc3cc(C)n[nH]3)nc(Sc3ccc(NC(=O)c4ccccc4Cl)cc3)n2)C1` [Compound 51]: the Ki was no more than 100 nM.

For `Cc1cc(Nc2cc(N3CCC3)nc(Sc3ccc(NC(=O)Cc4ccccc4Cl)cc3)n2)[nH]n1` [Compound 57], the Ki lay in the range of 100 to 1000 nM.

For `CC(C)(C)c1cc(Nc2cc(N3CCC3)nc(Sc3ccc(NC(=O)c4ccccc4Cl)cc3)n2)n[nH]1` [Compound 69], the Ki lay within 1000 to 2000 nM.

As to `CCOC1CN(c2cc(Nc3cc(C)[nH]n3)nc(Sc3ccc(NC(=O)c4ccccc4Cl)cc3)n2)C1` [Compound 37], the Ki is no more than 100 nM.

As to `CCC(=O)Nc1ccc(Sc2nc(Nc3cc(C)n[nH]3)cc(N3CC(N4CCOCC4)C3)n2)cc1` [Compound 68], the Ki is 100 to 1000 nM.

Turning to `Cc1cc(Nc2cc(N3CC(OC(C)C)C3)nc(Sc3ccc(NC(=O)c4ccccc4Cl)cc3)n2)n[nH]1` [Compound 38], the Ki was no more than 100 nM.

For `COCc1cc(Nc2cc(N3CCC3)nc(Sc3ccc(NC(=O)c4ccccc4Cl)cc3)n2)n[nH]1` [Compound 82], the Ki was in the range of 100 to 1000 nM.

Turning to `Cc1cc(Nc2cc(N3CCC3)nc(Sc3ccc(NC(=O)c4cnccc4C(F)(F)F)cc3)n2)[nH]n1` [Compound 59], the Ki is 100 to 1000 nM.
